SMILES strings stand for the structures.

In the first assay the test system is HT-1080. The assay is described as follows: Reversal of erastin induced cell death in human HT-1080 cells assessed as cell viability preincubated for 1 hr followed by erastin addition and measured after 24 hrs by CCK8 method. For orientation: Tetrazolium dyes change colour on reduction, which living cells bring about.
Regarding `COc1ccc(NCc2cccn2-c2nnc(N3CCN(C)CC3)s2)cc1OC`, the EC50 stood at 19.2 µM.
For `COc1ccc(NCc2cccn2-c2nnc(N3CCN(C)CC3)s2)c(OC)c1`, the EC50 was found to be 7.8 µM.

The next assay addresses T1, Phospholipid hydroperoxide glutathione peroxidase GPX4 (Homo sapiens, UniProt P36969).
T1 sequence (P36969 whole entry): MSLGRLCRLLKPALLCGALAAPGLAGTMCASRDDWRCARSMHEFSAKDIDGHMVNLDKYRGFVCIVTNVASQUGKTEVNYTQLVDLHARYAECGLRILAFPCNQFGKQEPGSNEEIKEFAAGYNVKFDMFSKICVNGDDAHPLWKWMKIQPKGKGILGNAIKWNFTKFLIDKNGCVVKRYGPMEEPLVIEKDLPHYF
Put plainly: Binding affinity to GPX4 (unknown origin) assessed as dissociation constant by surface plasmon resonance.
With `COc1ccc(NCc2cccn2-c2nnc(N3CCCCC3)s2)cc1OC`, the Kd amounted to 5.69 µM.
With `COc1ccc(NCc2cccn2-c2nnc(N3CCOCC3)s2)cc1OC`, the Kd amounted to 27.1 µM.
For the compound `COc1ccc(NCc2cccn2-c2nnc(N3CCOCC3)s2)c(OC)c1`, the Kd worked out at 10.5 µM.
On to `COc1ccc(NCc2cccn2-c2nn3ccnc3s2)c(OC)c1`, for which the Kd was 0.717 µM.
Still for that read-out and setting: the same measure for `COc1ccc(NCc2cccn2-c2nnc(C)s2)cc1OC`: 4.48 µM; for `COc1ccc(NCc2cccn2-c2nnc(N(C)C)s2)cc1OC`: 5.22 µM; for `CCCN1CCN(c2nnc(-n3cccc3CNc3ccc(OC)c(OC)c3)s2)CC1`: 0.036 µM.
For `COc1ccc(NCc2cccn2-c2nnc(NC(=O)c3cccc(F)c3)s2)cc1OC`, the Kd was determined as 0.931 µM.
As to `COc1ccc(NCc2cccn2-c2nnc(N3CCN(C)CC3)s2)cc1OC`, the Kd stood at 5.86 µM.
On to `COc1ccc(NCc2cccn2-c2ccc(Cl)cc2)cc1OC`, for which the dissociation constant Kd is 1.14 µM.
For `CCOc1cc(NCc2cccn2-c2nnc(N3CCN(C)CC3)s2)ccc1OC`, the Kd amounted to 10.7 µM.
For the compound `COc1ccc(NCc2cccn2-c2cccc(Cl)n2)cc1OC`, the Kd is 1.05 µM.
Regarding `COc1ccc(NCc2cc3ccccc3n2-c2nnc(N3CCN(C)CC3)s2)cc1OC`, the Kd was 4.06 µM.
Still for that read-out and setting: in the case of `CN1CCN(c2nnc(-n3cccc3CNc3ccc4c(c3)OCCO4)s2)CC1` it was 0.835 µM.
Regarding `COc1ccc(NCc2cccn2-c2nn3ccnc3s2)cc1OC`, the Kd came to 4.23 µM.
With `CCN(CC)c1nnc(-n2cccc2CNc2ccc(OC)c(OC)c2)s1`, the Kd amounted to 9.8 µM.
Consider `COc1ccc(NCc2cccn2-c2nnc(NC(=O)c3ccc(F)cc3)s2)cc1OC`, for which the dissociation constant Kd was determined as 4.69 µM.
For `COc1ccc(NCc2cccn2-c2nc3ccccc3s2)cc1OC`, the Kd turned out to be 4.99 µM.
For `COc1ccc(NCc2cccn2-c2nnc(N3CCN(C)CC3)s2)c(OC)c1`, the Kd worked out at 0.426 µM.
Turning to `COc1ccc(NCc2ccnn2-c2nnc(N3CCN(C)CC3)s2)cc1OC`, the Kd worked out at 4.64 µM.
With `COc1ccc(NCc2cccn2-c2nnc(N)s2)cc1OC`, the Kd stood at 0.17 µM.
As to `COc1ccc(NCc2cccn2-c2nnc(NC(=O)c3ccccc3F)s2)cc1OC`, the equilibrium dissociation constant (Kd) stood at 10.5 µM.
For the compound `COc1ccc(NCc2cccn2-c2ccc(N3CCN(C)CC3)s2)cc1OC`, the dissociation constant Kd came to 6.9 µM.
Regarding `COc1ccc(NCc2cncn2-c2nnc(N3CCN(C)CC3)s2)cc1OC`, the equilibrium dissociation constant (Kd) amounted to 3.43 µM.
In the case of `COc1ccc(NCc2cccn2-c2cnc(C)s2)cc1OC`, the Kd is 8.24 µM.
As to `COc1ccc(NCc2cccn2-c2nncs2)cc1OC`, the equilibrium dissociation constant (Kd) turned out to be 7.91 µM.
The same measure, in the same setting: in the case of `COc1ccc(NCc2cccn2-c2cccc(N3CCN(C)CC3)n2)cc1OC` it was 2.1 µM; in that of `COc1ccc(NCc2cccn2-c2nnc(N3CCN(C)CC3)s2)cc1`, 7.87 µM.
Consider `COc1ccc(NCc2cccn2-c2nnc(NC(=O)c3ccccc3)s2)cc1OC`, for which the Kd was 1.27 µM.

For orientation: EC50 means the midpoint of the concentration-response curve. Usually Kd stands for the constant that tells how readily two partners part at equilibrium.

Values taken from ChEMBL document CHEMBL5614391, “GPX4 allosteric activators inhibit ferroptosis and exert myocardial protection in doxorubicin-induced myocardial injury mouse model” (Eur J Med Chem, 2024).
